Test results as given in patent US11174253B2, “Compound and pharmaceutical composition containing the same” (ALPHALA CO., LTD., priority 2017, dated 2021).

Tested on: hepatocellular carcinoma cell line Hep3B
Test: Growth inhibition of Hep3B cells, 48 hr treatment, Hoechst 33342 nucleus count (GE InCell 2200)
Type: cell-based
Settings: Homo sapiens, Table 5, ratio of number of tumor cells treated with 10 μM compound to non-treated cells
Procedure: The potency of selected compounds was defined by the growth inhibition ability to the hepatocellular carcinoma cell line Hep3B. The Hep3B cells were treated with selected compounds for 48 hr under 37° C., 5% CO2, and 95% relative humidity.
The number of treated cells was determined by GE InCell 2200 system, and treated cells were stained with Hoechst 33342 which can reveal the remained nucleus in culture plate. The proportion of survival cells then were calculated with the ratio of treated/non-treated cells. The growth inhibition/cytotoxic effect of selected compounds were evaluated by the following protocol of NCI-60 screening platform. The human tumor cell lines are plating on a 96 well plate in a fixed density 24 hr prior compound treatment. Compounds with multiple concentrations are then added into each well for further 48 hr incubation. Cell viability is assessed by MTS method and the potency of compound is represented by GI50 and LC50 calculated by MTS result.
Herein, the “Ratio in 10 μM (%)” in the following Tables 1-6 refers to the ratio of the number of tumor cells treated with 10 μM of selected compounds to the number of non-treated tumer cells.

| SMILES | viability at 10 µM |
| --- | --- |
| CCCOc1ccc(-c2nc(NC(=O)c3ccc([N+](=O)[O-])s3)sc2Oc2cc(C)c(Br)c(C)c2)cc1 [Compound 5-28, N-(5-(4-bromo-3,5-dimethylphenoxy)-4-(4-propoxyphenyl)thiazol-2-yl)-5-nitrothiophene-2-carboxamide] | 32% |
| O=C(Nc1nc(-c2ccc(F)cc2)c(Oc2ccccc2C(F)(F)F)s1)c1ccc([N+](=O)[O-])s1 [Compound 5-31, N-(4-(4-fluorophenyl)-5-(2-(trifluoromethyl)phenoxy)thiazol-2-yl)-5-nitrothiophene-2-carboxamide] | 48% |
| O=C(Nc1nc(-c2ccc(F)cc2)c(Oc2ccc(OC(F)(F)F)cc2)s1)c1ccc([N+](=O)[O-])s1 [Compound 5-33, N-(4-(4-fluorophenyl)-5-(4-(trifluoromethoxy)phenoxy)thiazol-2-yl)-5-nitrothiophene-2-carboxamide] | 40% |
| COc1ccc(-c2nc(NC(=O)c3ccc([N+](=O)[O-])s3)sc2Oc2ccccc2)cc1 [Compound 5-34, N-(4-(4-methoxyphenyl)-5-phenoxythiazol-2-yl)-5-nitrothiophene-2-carboxamide] | 54% |
| CNC(=O)c1ccc(-c2nc(NC(=O)c3ccc([N+](=O)[O-])s3)sc2Oc2ccc(F)cc2)cc1 [Compound 5-35, N-(5-(4-fluorophenoxy)-4-(4-(methylcarbamoyl)phenyl)thiazol-2-yl)-5-nitrothiophene-2-carboxamide] | 68% |
| CCOc1cc(OCC)cc(-c2nc(NC(=O)c3ccc([N+](=O)[O-])s3)sc2Oc2ccccc2)c1 [Compound 5-36, N-(4-(3,5-diethoxyphenyl)-5-phenoxythiazol-2-yl)-5-nitrothiophene-2-carboxamide] | 39% |
| CCCOc1ccc(-c2nc(NC(=O)c3ccc([N+](=O)[O-])s3)sc2Oc2ccc(F)cc2F)cc1 [Compound 5-37, N-(5-(2,4-difluorophenoxy)-4-(4-propoxyphenyl)thiazol-2-yl)-5-nitrothiophene-2-carboxamide] | 38% |
| CCCOc1ccc(-c2nc(NC(=O)c3ccc([N+](=O)[O-])s3)sc2Oc2ccc(C#N)cc2OC)cc1 [Compound 5-40, N-(5-(4-cyano-2-methoxyphenoxy)-4-(4-propoxyphenyl)thiazol-2-yl)-5-nitrothiophene-2-carboxamide] | 46% |
| CC(C)(C)C#Cc1ccc(-c2nc(NC(=O)c3ccc([N+](=O)[O-])s3)sc2Oc2ccccc2)s1 [Compound 5-41, N-(4-(5-(3,3-dimethylbut-1-yn-1-yl)thiophen-2-yl)-5-phenoxythiazol-2-yl)-5-nitrothiophene-2-carboxamide] | 41% |
| O=C(Nc1nc(-c2ccc(Br)s2)c(Oc2ccccc2)s1)c1ccc([N+](=O)[O-])s1 [Compound 5-42, N-(4-(5-bromothiophen-2-yl)-5-phenoxythiazol-2-yl)-5-nitrothiophene-2-carboxamide] | 55% |
| CCCOc1ccc(-c2nc(NC(=O)c3ccc([N+](=O)[O-])s3)sc2Oc2ccc(Cl)c(Cl)c2)cc1 [Compound 5-44, N-(5-(3,4-dichlorophenoxy)-4-(4-propoxyphenyl)thiazol-2-yl)-5-nitrothiophene-2-carboxamide] | 41% |
| CCCOc1ccc(-c2nc(NC(=O)c3ccc([N+](=O)[O-])s3)sc2Oc2ccc(F)cc2Cl)cc1 [Compound 5-45, N-(5-(2-chloro-4-fluorophenoxy)-4-(4-propoxyphenyl)thiazol-2-yl)-5-nitrothiophene-2-carboxamide] | 28% |
| CN(C)CC#Cc1ccc(-c2nc(NC(=O)c3ccc([N+](=O)[O-])s3)sc2Oc2ccccc2)s1 [Compound 5-46, N-(4-(5-(3-(dimethylamino)prop-1-yn-1-yl)thiophen-2-yl)-5-phenoxythiazol-2-yl)-5-nitrothiophene-2-carboxamide] | 53% |
| CCCOc1ccc(-c2nc(NC(=O)c3ccc([N+](=O)[O-])o3)sc2Oc2ccc(F)cc2)cc1 [Compound 5-49, N-(5-(4-fluorophenoxy)-4-(4-propoxyphenyl)thiazol-2-yl)-5-nitrofuran-2-carboxamide] | 41% |
| CCCOc1ccc(-c2nc(NC(=O)c3ccc([N+](=O)[O-])s3)sc2Oc2cc(F)cc(F)c2)cc1 [Compound 5-50, N-(5-(3,5-difluorophenoxy)-4-(4-propoxyphenyl)thiazol-2-yl)-5-nitrothiophene-2-carboxamide] | 42% |
| CCOc1ccc(-c2nc(NC(=O)c3ccc([N+](=O)[O-])s3)sc2Oc2ccccc2)cn1 [Compound 5-51, N-(4-(6-ethoxypyridin-3-yl)-5-phenoxythiazol-2-yl)-5-nitrothiophene-2-carboxamide] | 43% |
| CCCOc1ccc(-c2nc(NC(=O)c3ccc([N+](=O)[O-])s3)sc2Oc2cccc3cccnc23)cc1 [Compound 5-52, 5-nitro-N-(4-(4-propoxyphenyl)-5-(quinolin-8-yloxy)thiazol-2-yl)thiophene-2-carboxamide] | 41% |

| SMILES | viability at 10 µM |
| --- | --- |
| CCOc1ccc(-c2nc(NC(=O)c3ccc([N+](=O)[O-])s3)sc2Oc2ccccc2)c(F)c1 [Compound 5-53, N-(4-(4-ethoxy-2-fluorophenyl)-5-phenoxythiazol-2-yl)-5-nitrothiophene-2-carboxamide] | 41% |
| CCOc1ccc(-c2nc(NC(=O)c3ccc([N+](=O)[O-])s3)sc2Oc2cccc(F)c2)cc1 [Compound 5-54, N-(4-(4-ethoxyphenyl)-5-(3-fluorophenoxy)thiazol-2-yl)-5-nitrothiophene-2-carboxamide] | 35% |
| CCOc1ccc(-c2nc(NC(=O)c3ccc([N+](=O)[O-])s3)sc2Oc2ccc(F)cc2)cc1 [Compound 5-55, N-(4-(4-ethoxyphenyl)-5-(4-fluorophenoxy)thiazol-2-yl)-5-nitrothiophene-2-carboxamide] | 47% |
| CCOc1ccc(-c2nc(NC(=O)c3ccc([N+](=O)[O-])s3)sc2Oc2ccccc2F)cc1 [Compound 5-57, N-(4-(4-ethoxyphenyl)-5-(2-fluorophenoxy)thiazol-2-yl)-5-nitrothiophene-2-carboxamide] | 43% |
| CCCOc1ccc(-c2nc(NC(=O)c3ccc([N+](=O)[O-])s3)sc2Oc2ccccc2F)cc1 [Compound 5-58, N-(5-(2-fluorophenoxy)-4-(4-propoxyphenyl)thiazol-2-yl)-5-nitrothiophene-2-carboxamide] | 43% |
| CCC(C)(C)c1ccc(-c2nc(NC(=O)c3ccc([N+](=O)[O-])s3)sc2Oc2ccccc2)cc1 [Compound 5-59, 5-nitro-N-(4-(4-(tert-pentyl)phenyl)-5-phenoxythiazol-2-yl)thiophene-2-carboxamide] | 38% |
| O=C(Nc1nc(-c2ccc([N+](=O)[O-])cc2)c(Oc2ccccc2)s1)c1ccc([N+](=O)[O-])s1 [Compound 5-60, 5-nitro-N-(4-(4-nitrophenyl)-5-phenoxythiazol-2-yl)thiophene-2-carboxamide] | 38% |
| COc1cc(-c2nc(NC(=O)c3ccc([N+](=O)[O-])s3)sc2Oc2ccccc2)cc(OC)c1OC [Compound 5-61, 5-nitro-N-(5-phenoxy-4-(3,4,5-trimethoxyphenyl)thiazol-2-yl)thiophene-2-carboxamide] | 59% |
| CC(C)(C)c1ccc(Oc2sc(NC(=O)c3ccc([N+](=O)[O-])s3)nc2-c2ccc(F)cc2)cc1 [Compound 5-64, N-(5-(4-(tert-butyl)phenoxy)-4-(4-fluorophenyl)thiazol-2-yl)-5-nitrothiophene-2-carboxamide] | 54% |
| CCCCc1ccc(Oc2sc(NC(=O)c3ccc([N+](=O)[O-])s3)nc2-c2ccc(F)cc2)cc1 [Compound 5-65, N-(5-(4-butylphenoxy)-4-(4-fluorophenyl)thiazol-2-yl)-5-nitrothiophene-2-carboxamide] | 43% |
| CCCCOc1ccc(-c2nc(NC(=O)c3ccc([N+](=O)[O-])s3)sc2Oc2ccccc2F)cc1 [Compound 5-72, N-(4-(4-butoxyphenyl)-5-(2-fluorophenoxy)thiazol-2-yl)-5-nitrothiophene-2-carboxamide] | 43% |
| CCCCOc1ccc(-c2nc(NC(=O)c3ccc([N+](=O)[O-])s3)sc2Oc2ccc(F)cc2)cc1 [Compound 5-73, N-(4-(4-butoxyphenyl)-5-(4-fluorophenoxy)thiazol-2-yl)-5-nitrothiophene-2-carboxamide] | 49% |
| CCCc1ccc(-c2nc(NC(=O)c3ccc([N+](=O)[O-])s3)sc2Oc2ccccc2)cc1 [Compound 5-77, 5-nitro-N-(5-phenoxy-4-(4-propylphenyl)thiazol-2-yl)thiophene-2-carboxamide] | 33% |
| CCCc1ccc(-c2nc(NC(=O)c3ccc([N+](=O)[O-])s3)sc2Oc2ccccc2F)cc1 [Compound 5-78, N-(5-(2-fluorophenoxy)-4-(4-propylphenyl)thiazol-2-yl)-5-nitrothiophene-2-carboxamide] | 33% |
| CCCCc1ccc(-c2nc(NC(=O)c3ccc([N+](=O)[O-])s3)sc2Oc2ccccc2)cc1 [Compound 5-79, N-(4-(4-butylphenyl)-5-phenoxythiazol-2-yl)-5-nitrothiophene-2-carboxamide] | 31% |
| CCOc1ccc(-c2nc(N(C)C(=O)c3ccc([N+](=O)[O-])s3)sc2Oc2ccccc2)cc1 [Compound 5-82, N-(4-(4-ethoxyphenyl)-5-phenoxythiazol-2-yl)-N-methyl-5-nitrothiophene-2-carboxamide] | 59% |
